What was measured:
[1] = molecular target: wild-type human cardiac sodium channel, hNaV 1.5 (Late INa) (Homo sapiens, UniProt Q14524); assay: Late INa screening assay (whole cell patch clamp, QPatch, Tefluthrin-induced late current); assay type: cell-based; conditions: HEK293, % inhibition (percent block of late INa) at 1 uM; HEK293 hNaV1.5; 10 μM Tefluthrin; read-out: Nav1.5 Late INa 1 uM
Summary of the method: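 HEK293 cells stably expressing hNaV1.5 without beta subunits, whole-cell patch clamp at 23-25° C; late current induced by 10 μM Tefluthrin, measured 240-265 ms into 250 ms steps to −20 mV from −120 mV at 0.1 Hz. Compounds typically 0.3 or 1 μM, three additions over 5 min; percent block normalized to 0Na baseline with rundown correction.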

hNaV1.2 (SCN2A) = molecular target: T1, hNaV1.2 (SCN2A) (Homo sapiens, UniProt Q99250); assay: Use-dependent inhibition of the CNS NaV1.2 sodium channel; assay type: cell-based; conditions: HEK-293, % inhibition, 25 Hz
T1 construct: expressed in transfected cells
T1 sequence (Q99250 whole entry): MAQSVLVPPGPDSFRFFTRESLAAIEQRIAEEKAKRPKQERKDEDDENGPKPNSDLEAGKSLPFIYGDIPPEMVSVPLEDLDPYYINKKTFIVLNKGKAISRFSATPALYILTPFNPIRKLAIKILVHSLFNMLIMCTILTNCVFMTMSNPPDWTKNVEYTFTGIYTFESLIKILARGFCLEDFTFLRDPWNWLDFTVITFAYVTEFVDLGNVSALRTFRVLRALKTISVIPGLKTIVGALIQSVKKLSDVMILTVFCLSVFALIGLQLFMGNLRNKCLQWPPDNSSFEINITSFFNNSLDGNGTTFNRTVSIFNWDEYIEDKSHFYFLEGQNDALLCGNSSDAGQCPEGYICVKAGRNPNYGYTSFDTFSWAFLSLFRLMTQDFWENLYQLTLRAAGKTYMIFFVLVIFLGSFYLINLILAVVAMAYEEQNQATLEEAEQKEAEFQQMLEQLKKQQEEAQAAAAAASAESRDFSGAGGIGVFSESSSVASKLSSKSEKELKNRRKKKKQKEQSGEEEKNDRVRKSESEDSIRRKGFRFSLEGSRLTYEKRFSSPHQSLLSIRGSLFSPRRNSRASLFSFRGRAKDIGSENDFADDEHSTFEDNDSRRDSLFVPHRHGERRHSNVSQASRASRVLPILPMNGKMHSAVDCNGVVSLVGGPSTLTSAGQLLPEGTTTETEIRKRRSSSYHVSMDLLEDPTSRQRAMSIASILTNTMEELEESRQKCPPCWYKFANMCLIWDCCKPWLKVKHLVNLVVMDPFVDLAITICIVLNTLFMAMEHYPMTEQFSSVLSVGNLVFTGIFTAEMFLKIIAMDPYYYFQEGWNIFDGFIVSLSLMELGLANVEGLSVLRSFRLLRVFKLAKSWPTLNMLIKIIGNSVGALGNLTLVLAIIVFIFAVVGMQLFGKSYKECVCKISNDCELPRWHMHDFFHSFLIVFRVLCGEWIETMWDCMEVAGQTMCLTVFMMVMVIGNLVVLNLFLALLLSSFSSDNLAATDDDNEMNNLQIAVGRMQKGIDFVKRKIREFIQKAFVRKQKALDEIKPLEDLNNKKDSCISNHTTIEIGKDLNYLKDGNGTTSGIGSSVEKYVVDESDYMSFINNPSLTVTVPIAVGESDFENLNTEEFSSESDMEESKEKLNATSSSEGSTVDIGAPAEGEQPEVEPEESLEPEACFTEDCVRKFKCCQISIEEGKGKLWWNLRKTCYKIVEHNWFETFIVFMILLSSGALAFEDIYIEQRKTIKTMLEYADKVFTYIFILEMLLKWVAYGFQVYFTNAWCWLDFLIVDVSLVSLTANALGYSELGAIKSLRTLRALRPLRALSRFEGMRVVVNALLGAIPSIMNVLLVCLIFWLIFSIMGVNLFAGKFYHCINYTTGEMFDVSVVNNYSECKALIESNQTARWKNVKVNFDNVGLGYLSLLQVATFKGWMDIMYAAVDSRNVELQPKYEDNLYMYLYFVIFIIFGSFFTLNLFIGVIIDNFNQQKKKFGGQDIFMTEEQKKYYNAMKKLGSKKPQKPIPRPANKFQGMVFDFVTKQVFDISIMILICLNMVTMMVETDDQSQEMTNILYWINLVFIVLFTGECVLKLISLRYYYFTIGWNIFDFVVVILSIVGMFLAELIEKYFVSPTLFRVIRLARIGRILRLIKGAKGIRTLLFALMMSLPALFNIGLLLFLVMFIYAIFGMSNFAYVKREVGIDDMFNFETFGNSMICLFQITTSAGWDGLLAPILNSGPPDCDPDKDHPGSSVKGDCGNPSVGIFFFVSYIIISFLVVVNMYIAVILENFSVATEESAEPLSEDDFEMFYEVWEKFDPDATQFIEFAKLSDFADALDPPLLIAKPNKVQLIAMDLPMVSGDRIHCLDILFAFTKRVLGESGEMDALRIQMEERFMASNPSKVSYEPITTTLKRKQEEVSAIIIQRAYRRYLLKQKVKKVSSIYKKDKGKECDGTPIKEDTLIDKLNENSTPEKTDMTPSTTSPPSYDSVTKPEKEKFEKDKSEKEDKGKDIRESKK
T1 sequence (Q07699 19-218 partner): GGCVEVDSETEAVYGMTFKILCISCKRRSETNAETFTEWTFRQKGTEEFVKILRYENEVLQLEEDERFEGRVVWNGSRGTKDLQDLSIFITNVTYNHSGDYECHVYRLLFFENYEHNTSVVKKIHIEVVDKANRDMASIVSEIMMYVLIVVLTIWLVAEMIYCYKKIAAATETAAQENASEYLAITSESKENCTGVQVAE
T1 sequence (O60939 30-215 partner): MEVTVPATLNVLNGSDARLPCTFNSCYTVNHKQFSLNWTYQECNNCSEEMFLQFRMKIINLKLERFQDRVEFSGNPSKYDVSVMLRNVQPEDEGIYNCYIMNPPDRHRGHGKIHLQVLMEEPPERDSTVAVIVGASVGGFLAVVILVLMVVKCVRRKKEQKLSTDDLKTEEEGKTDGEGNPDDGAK
Summary of the method: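 Use-dependent block of human NaV1.2 was recorded by automated whole-cell patch clamp (QPatch) in HEK-293 cells stably expressing hNaV1.2 with beta1 and beta2 subunits. From a −120 mV holding potential, a 25 Hz train of twenty 20 ms pulses to 0 mV was applied. Peak current at pulse 20, normalized to pulse 1, gave percent inhibition versus compound-free conditions at 23-25° C.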

Chain of wild-type human cardiac sodium channel, hNaV 1.5 (Late INa) (Q14524 whole entry): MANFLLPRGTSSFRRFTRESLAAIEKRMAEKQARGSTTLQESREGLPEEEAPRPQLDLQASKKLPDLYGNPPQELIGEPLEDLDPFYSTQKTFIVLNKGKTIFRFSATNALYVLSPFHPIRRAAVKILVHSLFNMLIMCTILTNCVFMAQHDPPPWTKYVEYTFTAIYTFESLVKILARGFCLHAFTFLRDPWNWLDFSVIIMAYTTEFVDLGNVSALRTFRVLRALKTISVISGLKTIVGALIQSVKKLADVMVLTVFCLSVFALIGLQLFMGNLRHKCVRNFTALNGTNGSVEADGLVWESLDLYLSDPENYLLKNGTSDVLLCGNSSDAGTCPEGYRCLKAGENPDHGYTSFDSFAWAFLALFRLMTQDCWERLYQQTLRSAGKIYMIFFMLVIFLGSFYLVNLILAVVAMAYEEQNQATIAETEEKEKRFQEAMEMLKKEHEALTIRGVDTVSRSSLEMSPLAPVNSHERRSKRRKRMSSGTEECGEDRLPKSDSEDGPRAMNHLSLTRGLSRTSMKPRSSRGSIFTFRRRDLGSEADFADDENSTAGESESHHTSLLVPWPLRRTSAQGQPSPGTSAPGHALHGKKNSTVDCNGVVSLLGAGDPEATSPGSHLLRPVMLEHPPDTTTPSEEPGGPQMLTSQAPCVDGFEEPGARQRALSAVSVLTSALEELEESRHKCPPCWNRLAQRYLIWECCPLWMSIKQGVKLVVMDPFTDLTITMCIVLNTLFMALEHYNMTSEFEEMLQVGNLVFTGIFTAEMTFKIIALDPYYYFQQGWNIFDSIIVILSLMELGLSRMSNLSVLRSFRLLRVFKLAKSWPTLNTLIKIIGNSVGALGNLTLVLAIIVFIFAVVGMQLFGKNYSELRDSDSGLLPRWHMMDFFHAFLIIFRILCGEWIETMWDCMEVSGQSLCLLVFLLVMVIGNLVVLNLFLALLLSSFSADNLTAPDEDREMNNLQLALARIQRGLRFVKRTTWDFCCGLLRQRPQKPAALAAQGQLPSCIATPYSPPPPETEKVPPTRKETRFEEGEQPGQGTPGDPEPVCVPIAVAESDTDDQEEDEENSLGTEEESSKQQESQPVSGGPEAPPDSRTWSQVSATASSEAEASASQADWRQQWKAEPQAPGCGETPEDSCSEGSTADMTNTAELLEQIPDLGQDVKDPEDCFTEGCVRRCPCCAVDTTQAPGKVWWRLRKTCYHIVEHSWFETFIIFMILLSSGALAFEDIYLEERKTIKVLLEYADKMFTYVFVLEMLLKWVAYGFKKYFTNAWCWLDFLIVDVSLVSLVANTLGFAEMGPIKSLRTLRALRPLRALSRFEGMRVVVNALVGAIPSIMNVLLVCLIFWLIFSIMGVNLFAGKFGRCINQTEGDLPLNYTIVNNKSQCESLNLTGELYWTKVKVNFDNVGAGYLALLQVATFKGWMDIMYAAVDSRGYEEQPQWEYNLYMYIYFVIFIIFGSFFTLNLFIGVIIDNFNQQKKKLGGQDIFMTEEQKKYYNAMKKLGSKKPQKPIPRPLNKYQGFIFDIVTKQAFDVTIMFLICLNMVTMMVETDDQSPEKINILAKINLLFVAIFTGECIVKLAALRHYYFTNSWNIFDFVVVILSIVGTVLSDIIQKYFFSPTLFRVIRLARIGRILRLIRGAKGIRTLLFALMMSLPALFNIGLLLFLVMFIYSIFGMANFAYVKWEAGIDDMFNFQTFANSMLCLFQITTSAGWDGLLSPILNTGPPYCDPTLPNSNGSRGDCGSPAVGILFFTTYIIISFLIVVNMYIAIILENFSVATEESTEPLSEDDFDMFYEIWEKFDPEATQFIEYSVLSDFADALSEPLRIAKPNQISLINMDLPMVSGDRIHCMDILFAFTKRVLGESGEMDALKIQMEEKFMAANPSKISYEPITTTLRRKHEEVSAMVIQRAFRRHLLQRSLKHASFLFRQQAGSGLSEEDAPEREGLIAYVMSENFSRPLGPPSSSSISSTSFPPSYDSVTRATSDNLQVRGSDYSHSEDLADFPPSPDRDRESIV

Cc1csc(CN2Cc3cc(-c4ccc(Cl)c(F)c4)ccc3OC2=O)n1 [Example 59, 6-(4-chloro-3-fluorophenyl)-3-((4-methylthiazol-2-yl)methyl)-3,4-dihydro-2H-benzo[e][1,3]oxazin-2-one]
inhibition at 1 µM [1]: 50.3%
inhibition at 1 µM (hNaV1.2 (SCN2A); use-dependent block at 1 uM, read-out: Nav1.2 UDB 25 Hz 1 uM): < 5%
inhibition at 10 µM (hNaV1.2 (SCN2A); use-dependent block at 10 uM, read-out: Nav1.2 UDB 25 Hz 10 uM): 41.2%

From patent US9416128B2, “Fused heterocyclic compounds as ion channel modulators” (Gilead Sciences, Inc., priority 2013, dated 2016)
